Drawing on PubChem BioAssay (NCI), this text covers GI50 and TGI for 29 compounds.

Test systems include MDA-MB-468 breast; NCI-H23 lung; SF-295 CNS; HCC-2998 colon; SF-539 CNS; OVCAR-5 ovarian; SN12C renal; HS 578T breast; RXF 393 renal; CCRF-CEM leukemia; UACC-62 melanoma.
Holding throughout (test): NCI-60 cell line screen, 48 h

Each structure is given as a SMILES string. “And” between values parts separate entries of the source, which are not always exact repeats. Identical values can stand only once.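 Briefly, cells in 96-well plates were exposed to five compound concentrations for 48 h, and endpoints were estimated by linear interpolation. Abbreviation: GI50, concentration required for 50% inhibition of growth. TGI: concentration producing complete growth inhibition.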

Regarding `COc1nc(=O)n(C2C=CC(=O)O2)cc1F` (configuration not stated), in the experiment on MDA-MB-468 breast, the GI50 is 1930 nM and the TGI stood at 9.1 µM.

Consider `CCN(Cc1c(F)cccc1OC)c1ccc(CO)c(Cl)c1`, for which, in the experiment on MDA-MB-468 breast, the GI50 was 28.5 nM and the TGI was determined as 0.144 µM.

On to `COc1ccc(-c2cc(=O)oc3c4c(ccc23)OCN(Cc2ccc(F)cc2)C4)cc1`, for which, in the experiment on MDA-MB-468 breast, the GI50 is 15700 nM and the TGI worked out at 36.3 µM.

Turning to `OC(c1cc2cc(Cl)ccc2c2cc(C(F)(F)F)ccc12)C1CCCCN1` (configuration not stated), in the experiment on MDA-MB-468 breast, the GI50 is 1660 nM and the TGI was 3.2 µM.

For `O=C(Nc1nc(-c2c[nH]c3ccccc23)cs1)c1n[nH]c(=O)c2ccccc12`, in the experiment with MDA-MB-468 breast, the GI50 was 77900 nM and the TGI is over 100 µM.

As for `COC(=O)/C=C/c1cc(OC(C)=O)c2c(c1)C(C(=O)OC)C(c1ccc(OC(C)=O)c(OC(C)=O)c1)O2` (configuration not stated), in the experiment on MDA-MB-468 breast, the GI50 was 1200 nM and the TGI was 17.8 µM.

For `NNc1ncnc2nc[nH]c12`, in the experiment with MDA-MB-468 breast, the GI50 was 5790 nM and the TGI was over 100 µM.

For `Brc1ccc(/C=C/c2n(Cc3ccc4ccccc4c3)c3ccccc3[n+]2Cc2ccc3ccccc3c2)cc1`, the GI50 in the experiment with NCI-H23 lung is 1330 nM; in the experiment on SF-295 CNS, 1400 nM; in the experiment with HCC-2998 colon, 1490 nM; in the experiment with SF-539 CNS it was 1670 nM; with OVCAR-5 ovarian, 1350 nM; in the experiment on SN12C renal, 1640 nM. Also, the GI50 in the experiment on MDA-MB-468 breast was 1340 nM; with HS 578T breast, 1480 nM; in the experiment on RXF 393 renal, 1350 nM; in the experiment on CCRF-CEM leukemia it was 519 nM; with UACC-62 melanoma it was 1530 nM. The TGI with NCI-H23 lung was 2680 nM; in the experiment with SF-295 CNS, 2730 nM; with HCC-2998 colon, 2830 nM; in the experiment on SF-539 CNS, 3.04 µM; in the experiment with OVCAR-5 ovarian, 2660 nM; with SN12C renal, 3.03 µM. The TGI is 2.73 µM in the experiment with MDA-MB-468 breast; 3.87 µM in the experiment on HS 578T breast; 2640 nM in the experiment on RXF 393 renal; over 100 µM with CCRF-CEM leukemia; 2900 nM with UACC-62 melanoma.

Turning to `CCn1cc(-c2ccnc3[nH]c(-c4cccc(CN(C)C)c4)cc23)c(-c2ccc(NC(=O)N(C)C)cc2)n1`, in the experiment on MDA-MB-468 breast, the GI50 is 50.4 nM and 282 nM; the TGI was 16.7 µM and > 10 µM.

In the case of `CN(C)CCN1CCC(Cc2ccccc2)CC1`, in the experiment on MDA-MB-468 breast, the GI50 was over 80000 nM and the TGI was over 80 µM.

For `COc1ccc(CNc2c3ccccc3nc3ccccc23)cc1F`, in the experiment with MDA-MB-468 breast, the GI50 is 1860 nM and the TGI was 4.81 µM.

As for `O=c1[nH]c(-c2cccc(F)c2)cc2cc(F)ccc12`, in the experiment with MDA-MB-468 breast, the GI50 was 1890 nM and the TGI was over 100 µM.

With `CCN(CCNS(C)(=O)=O)c1ccc(N)c(C)c1`, in the experiment with MDA-MB-468 breast, the GI50 is 2110 nM and the TGI was determined as 5.64 µM.

`O=C(Nc1ncc(Cc2cccc(C(F)(F)F)c2)s1)c1ccc2c(c1)OCCO2`: the GI50 with MDA-MB-468 breast is 251 nM.

For the compound `N#CC(I)CS(=O)(=O)c1ccccc1` (configuration not stated), in the experiment on MDA-MB-468 breast, the GI50 was 3550 nM and the TGI was 14.1 µM.

Consider `NC(=O)c1cc(I)ccc1NC(=O)/C=C/c1ccccc1`, for which, in the experiment on MDA-MB-468 breast, the GI50 was 732 nM and the TGI came out at 47.1 µM.

As for `C[C@H](CCOc1cccc(CC(=O)O)c1)N(Cc1cccc(C(F)(F)F)c1Cl)CC(c1ccccc1)c1ccccc1`, in the experiment on MDA-MB-468 breast, the GI50 is 6730 nM and the TGI was 24 µM.

Take `COc1cc(/C=C2\CCCCC3=C2N=C2SC(C)=CN2C3c2cc(OC)c(OC)c(OC)c2)cc(OC)c1OC` (configuration not stated): in the experiment with MDA-MB-468 breast, the GI50 is 185 nM and the TGI is over 100 µM.

In the case of `Nc1c(C(=O)Nc2ccccn2)sc2nc3c(cc12)C(=O)CCC3`, in the experiment with MDA-MB-468 breast, the GI50 is 269 nM and the TGI came to 67.3 µM.

In the case of `Nc1nc(Cl)nc2c1ncn2C1CC(O)C(CO)O1` (configuration not stated), in the experiment with MDA-MB-468 breast, the GI50 was 56600 nM and the TGI is over 100 µM.

Take `CC[C@]1(O)C[C@H]2CN(CCc3c([nH]c4ccccc34)C(C(=O)OC)(c3cc4c(cc3OC)N(C)[C@H]3[C@@](O)(C(=O)OC)[C@H](OC(C)=O)[C@]5(CC)[C@@H]6C[C@@H]6CN6CC[C@]43[C@@H]65)C2)C1` (some centres not stated): in the experiment with MDA-MB-468 breast, the GI50 was 2.85 nM and the TGI came to 0.00917 µM.

As for `CNCCCNc1ccnc2cc(Cl)ccc12`, in the experiment on MDA-MB-468 breast, the GI50 was 12700 nM and the TGI amounted to 33.5 µM.

Regarding `Cc1cccc(NC2=C(Cl)C(=O)c3nc(C)ccc3C2=O)c1`, in the experiment with MDA-MB-468 breast, the GI50 is 1270 nM and the TGI is 2.89 µM.

Turning to `CCCCCCn1c(-c2ccc(C(=O)O/N=C(\N)c3ccc4c(c3)OCO4)cc2)nc(-c2ccccc2)c1-c1ccccc1`, in the experiment with MDA-MB-468 breast, the GI50 was 2110 nM and the TGI amounted to 5.62 µM.

For the compound `CCOC(=O)c1c(C)c2c(n1Cc1ccccc1)CSCC2=O`, in the experiment with MDA-MB-468 breast, the GI50 is 23300 nM and the TGI was over 100 µM.

`COc1ccc(/C=C\c2cc(OC)c(OC)c(OC)c2)cc1OCC(=O)O`: in the experiment on MDA-MB-468 breast, the GI50 was 49300 nM and the TGI was over 100 µM.

Turning to `NC(N)=Nc1nc2ccccc2o1`, in the experiment with MDA-MB-468 breast, the GI50 is over 100000 nM and the TGI was over 100 µM.

For `C=CC12CCN(CC1)C(C(O)c1ccnc3ccc(OC)cc13)C2` (configuration not stated), in the experiment on MDA-MB-468 breast, the GI50 is 57400 nM and the TGI is over 100 µM.

`C=C(C)[C@@H]1CC[C@]2(CN)CC[C@]3(C)[C@H](CC[C@@H]4[C@@]5(C)CCCNC(C)(C)[C@@H]5CC[C@]43C)[C@@H]12`: in the experiment with MDA-MB-468 breast, the GI50 was 1750 nM and the TGI was 3.52 µM.
